Measurements as given in patent US11813239B2, “Compositions and methods for improving cardiac structure and/or function” (Wisconsin Alumni Research Foundation, priority 2020, dated 2023).

Tests used:
SDH = SDH (Homo sapiens, UniProt O14521+P21912+Q99643); settings: literature reference 21 (Miyadera et al. 2003); cited from earlier work
[1] = test system: postnatal (P7) mouse heart following myocardial infarction; assay: Echocardiography after myocardial infarction in P7 juvenile mice; settings: for % EF (Ejection Fraction) / % FS (Fractional Shortening) / LV Mass (Left Ventricular Mass, Anatomical Weight) / LV Vol; d (Left Ventricular Volume; diastole) / LV Vol; s (Left Ventricular Volume; systole) / LVAWD (Left Ventricle Anterior Wall Thickness Diastole) / LVAWS (Left Ventricle Anterior Wall Thickness Systole) / LVIDD (Left Ventricle Internal Diameter Diastole) / LVIDS (Left Ventricle Internal Diameter Systole) / LVPWD (Left Ventricle Posterior Wall Thickness Diastole) / LVPWS (Left Ventricle Posterior Wall Thickness Systole): Atpenin A5 100 μg/kg daily, mean ± SE
Procedure: (§1) Neonatal mice at postnatal day 1 (P1) or day 7 (P7) were used for myocardial infarction (MI) surgery. Neonatal mice were subjected to MI surgeries as previously described. Briefly, neonates were anesthetized by hypothermia on ice. Lateral thoracotomy at the fourth intercostal space was performed by blunt dissection of the intercostal muscles after skin incision. A C-1 tapered needle attached to a 6-0 prolene suture (Ethicon Inc., Bridgewater, N.J.) was passed through the mid-ventricle below the left anterior descending coronary artery (LAD) and tied off to induce MI. The prolene suture was used to suture the ribs together and seal the chest wall incisions, and the skin was closed using adhesive glue (3M). The mice then were warmed on a heating pad until recovery. Sham-operated mice underwent the same procedure including hypothermic anesthesia, but not LAD ligation.
(§2) Neonatal mice were weighed and injected daily with either saline, 100 mg/kg dimethyl succinate (Sigma), 100 mg/kg dimethyl malonate (Sigma), or 100 μg/kg Atpenin A5 (Enzo Life Sciences). Dimethyl succinate and dimethyl malonate were dissolved in saline. Stock solution of Atpenin A5 at 0.1 mg/ml was initially prepared by dissolving in DMSO (Sigma) and then further diluted with saline before injection. Saline was used as a vehicle control for all experiments.
Transthoracic echocardiography was performed by using a Visual Sonics 770 ultrasonograph with a 25-MHz transducer (Visual Sonics, Toronto) as described previously^19. Mice were lightly anesthetized with 1% isoflurane and maintained on a heated platform. Two-dimensionally guided M-mode images from a parasternal long axis (PLAX) of the left ventricle (LV) were acquired at the tip of the papillary muscles. Wall thickness and chamber diameters were measured in both diastole and systole. Fractional shortening was calculated as (LVDd−LVDs)/LVDd×100, where LVDd is LV diameter in diastole and LVDs is LV diameter in systole. Ejection fraction was calculated as [(7.0/(2.4+LVDd)(LVDd)^3−(7.0/(2.4+LVDs)(LVDs)^3/(7.0/(2.4+LVDd)(LVDd)^3×100 and LV mass was calculated by using the formula [1.05×((Posterior Walldiastole+Anterior Walldiastole+LVDd)^3−(LVDd)^3)]. All parameters were measured over at least three consecutive cycles.
We injected dimethyl malonate (100 mg/kg, daily) in neonatal mice directly after birth for 2 weeks with an MI performed once the mice reached P7. We then analyzed the hearts following injury to determine whether malonate results in prolongation of the neonatal regenerative window (FIG. 10A).

cardiomyocytes = assay: Immunostaining (pH3, Aurora B), WGA and trichrome staining after MI in P7 mice; settings: vs controls
Source text: We then analyzed the hearts following injury to determine whether malonate results in prolongation of the neonatal regenerative window (FIG. 5A). To examine whether malonate stimulates cardiomyocyte proliferation, we performed MI in 7-day-old mice and analyzed their hearts at 7 days post-MI by immunostaining for markers of proliferation.
as §1, §2
Hearts were harvested and fixed in 4% paraformaldehyde (PFA) in PBS solution overnight at 4° C., processed for paraffin embedding, and sectioned in intervals. Masson's trichrome staining was performed according to the manufacture's protocol (Newcomer Supply, Middleton, WI). Scar size measurements were quantified from at least 3 sections of the heart from ligature to apex. ImageJ was used to quantify the fibrotic scar, and the average scar area for each heart was plotted.
We injected dimethyl malonate (100 mg/kg, daily) in neonatal mice directly after birth for 2 weeks with an MI performed once the mice reached P7.

[2] = MI at P7 (n = 8), echo 21 days post-MI (P7D21)
[3] = sham at P7 (SH, n = 6), echo at day 21 (P7D21)
[4] = MI at P7, Atpenin A5 100 μg/kg daily, 7 days post-MI
[5] = MI at P7, Atpenin A5 100 μg/kg daily, 21 days post-MI

Sequence of SDH (P31040 43-664 partner): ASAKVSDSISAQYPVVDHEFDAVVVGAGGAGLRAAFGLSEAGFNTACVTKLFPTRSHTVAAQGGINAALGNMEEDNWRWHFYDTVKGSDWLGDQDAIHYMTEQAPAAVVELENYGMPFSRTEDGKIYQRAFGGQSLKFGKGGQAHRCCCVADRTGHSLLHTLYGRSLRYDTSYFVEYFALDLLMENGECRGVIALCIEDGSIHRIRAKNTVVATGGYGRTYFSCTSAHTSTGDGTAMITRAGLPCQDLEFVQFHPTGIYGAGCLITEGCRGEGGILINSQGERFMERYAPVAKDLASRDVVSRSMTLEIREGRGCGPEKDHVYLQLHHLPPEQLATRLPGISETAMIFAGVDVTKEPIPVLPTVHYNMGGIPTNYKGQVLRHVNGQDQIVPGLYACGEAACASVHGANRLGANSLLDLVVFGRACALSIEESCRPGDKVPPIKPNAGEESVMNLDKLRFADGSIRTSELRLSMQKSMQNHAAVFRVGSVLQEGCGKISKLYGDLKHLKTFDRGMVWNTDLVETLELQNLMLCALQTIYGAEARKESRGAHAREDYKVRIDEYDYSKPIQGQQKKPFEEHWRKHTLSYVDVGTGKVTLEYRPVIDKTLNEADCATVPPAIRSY
Sequence of SDH (P21912 29-280): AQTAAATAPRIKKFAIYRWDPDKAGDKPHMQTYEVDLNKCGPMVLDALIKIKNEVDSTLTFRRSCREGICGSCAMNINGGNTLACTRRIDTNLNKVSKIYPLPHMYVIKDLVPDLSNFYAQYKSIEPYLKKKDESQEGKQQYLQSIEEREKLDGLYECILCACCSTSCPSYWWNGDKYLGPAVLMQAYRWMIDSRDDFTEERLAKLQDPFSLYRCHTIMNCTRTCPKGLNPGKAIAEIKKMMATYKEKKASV
Sequence of SDH (Q99643 30-169): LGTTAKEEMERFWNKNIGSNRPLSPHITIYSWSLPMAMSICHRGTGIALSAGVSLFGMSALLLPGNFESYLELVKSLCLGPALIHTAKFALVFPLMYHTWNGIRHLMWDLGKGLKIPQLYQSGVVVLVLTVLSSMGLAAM
Sequence of SDH (O14521 57-159): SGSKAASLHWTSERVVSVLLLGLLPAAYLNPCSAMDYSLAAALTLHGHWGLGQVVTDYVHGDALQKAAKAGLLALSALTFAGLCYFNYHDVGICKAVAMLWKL

COc1[nH]c(=O)c(C(=O)[C@@H](C)C[C@H](C)[C@@H](Cl)CCl)c(O)c1OC [Atpenin A5]
inhibition of SDH (SDH): potent inhibitor of SDH | % EF (Ejection Fraction) [1, 2]: 49.676 ± 2.072% | % FS (Fractional Shortening) [1, 2]: 24.642 ± 1.227% | LV Mass (Left Ventricular Mass, Anatomical Weight) [1, 2]: 54.203 ± 7.978 mg | LV Vol; d (Left Ventricular Volume; diastole) [1, 2]: 50.033 ± 6.416 µL | LV Vol; s (Left Ventricular Volume; systole) [1, 2]: 25.290 ± 3.427 µL | LVAWD (Left Ventricle Anterior Wall Thickness Diastole) [1, 2]: 0.525 ± 0.023 mm | LVAWS (Left Ventricle Anterior Wall Thickness Systole) [1, 2]: 0.644 ± 0.032 mm | LVIDD (Left Ventricle Internal Diameter Diastole) [1, 2]: 3.438 ± 0.167 mm | LVIDS (Left Ventricle Internal Diameter Systole) [1, 2]: 2.592 ± 0.132 mm | LVPWD (Left Ventricle Posterior Wall Thickness Diastole) [1, 2]: 0.521 ± 0.025 mm | LVPWS (Left Ventricle Posterior Wall Thickness Systole) [1, 2]: 0.643 ± 0.027 mm | cardiac function by echocardiography ([1]; MI at P7, Atpenin A5 100 μg/kg daily, 3 weeks post-MI): restoration of cardiac function | % EF (Ejection Fraction) [1, 3]: 51.652 ± 3.984% | % FS (Fractional Shortening) [1, 3]: 25.773 ± 2.586% | LV Mass (Left Ventricular Mass, Anatomical Weight) [1, 3]: 42.822 ± 4.210 mg | LV Vol; d (Left Ventricular Volume; diastole) [1, 3]: 39.614 ± 7.039 µL | LV Vol; s (Left Ventricular Volume; systole) [1, 3]: 19.979 ± 4.374 µL | LVAWD (Left Ventricle Anterior Wall Thickness Diastole) [1, 3]: 0.493 ± 0.042 mm | LVAWS (Left Ventricle Anterior Wall Thickness Systole) [1, 3]: 0.615 ± 0.041 mm | LVIDD (Left Ventricle Internal Diameter Diastole) [1, 3]: 3.100 ± 0.229 mm | LVIDS (Left Ventricle Internal Diameter Systole) [1, 3]: 2.319 ± 0.221 mm | LVPWD (Left Ventricle Posterior Wall Thickness Diastole) [1, 3]: 0.536 ± 0.027 mm | LVPWS (Left Ventricle Posterior Wall Thickness Systole) [1, 3]: 0.648 ± 0.030 mm | percentage of cardiomyocytes undergoing cytokinesis (Aurora B staining) (cardiomyocytes; [4]): significant increase | percentage of cardiomyocytes undergoing mitosis (pH3 staining) (cardiomyocytes; [4]): significant increase | myocardial regeneration (trichrome staining) (cardiomyocytes; [5]): myocardial thickness at the infarct zone | scar size (trichrome staining, ImageJ) (cardiomyocytes; [5]): significant reduction in scar size

COC1=C(OC)C(=O)C(CCCCCCCCCC[P+](c2ccccc2)(c2ccccc2)c2ccccc2)=C(C)C1=O [MitoQ]
cardiac function by echocardiography (EF and FS) ([1]; MI at P7, MitoQ 10 mg/kg intraperitoneally daily for 2 weeks after birth, vs controls): no improvement in cardiac function | cardiomyocyte mitosis (pH3 immunostaining) (cardiomyocytes; MI at P7, MitoQ 10 mg/kg intraperitoneally daily for 2 weeks after birth, 7 days post-MI): significant increase in cardiomyocyte mitosis
